Where “and” joins values, the source holds several entries; their conditions need not be identical. Equal entries are not always repeated. Where two headings read alike, the source gives them in different places.
Key:
[1] = tested on: plaque adhering to supragingival calculus; experiment: Viable cell numbers in plaque soaked in disinfectant (Test Example 4); format: cell-based; details: 60 minutes of immersion
[2] = tested on: plaque adhering to subgingival calculus; experiment: as above; format: cell-based; details: 60 minutes of immersion
[3] = tested on: acid-fast bacteria; format: cell-based
[4] = tested on: putrefying bacteria in cooked rice; experiment: Viable cell numbers in prepared food after spraying (Test Example 3); format: cell-based
Text: (§1) With regards to the putrefaction process of prepared food, we investigated whether or not the present bactericidal disinfectant could stop the progress of putrefaction when sprayed of food, and the degree of that bactericidal effect. Normally disinfectants are not applied to prepared food, but very often scraps of food become lodged in a periodontal pocket, providing a nutritional source for bacteria, and since the present bactericidal disinfectant is composed of compounds which are recognized as food additives, it is important to assess these effects. Just-prepared cooked rice, tofu (soybean curd), spinach with sesame dressing, and fried meat and vegetables were each crushed, homogenized, and left at 28° C. for use as the samples. After samples had been left for 5 hours, part of each was taken and used to measure bacterial viable cell number, while the respective disinfectants were sprayed uniformly on the remaining samples. Viable cell numbers were measured 1, 2 and 24 hours after spraying. Water alone was sprayed as a control. After samples had been left for 24 hours part of each was taken for measuring viable cell number, and the respective disinfectants were sprayed uniformly on the remaining samples. As when the samples were left for 5 hours, viable cell numbers were measured 1 hour, 2 hours and 24 hours after spraying. Water alone was sprayed as a control. Viable cell numbers were measured by the poured plate method using 5 g of each sample diluted by ordinary methods.
(§2) The degree of putrefaction of course differs depending on the preparation method, ingredients and environment, but in the case of the cooked rice in this experiment, the viable cell number immediately after preparation was […] cells/g of sample, rising to 1×10^3 cells/g of sample after 5 hours, 5×10^5 cells/g of sample after 24 hours and 7×10^6 cells/g of sample after 48 hours. In the case of the tofu (soybean curd), the initial viable cell number was 2×10^4 cells/g of sample, rising to 8×10^5 cells/g of sample after 5 hours, 9×10^7 cells/g of sample after 24 hours, and 1×10^9 cells/g of sample after 48 hours, with considerable putrefaction. In the case of the spinach with sesame dressing, the viable cell number was 2×10^3 cells/g of sample immediately after preparation, rising to 5×10^4 cells/g of sample after 5 hours, 3×10^7 cells/g of sample after 24 hours and 2×10^8 cells/g of sample after 48 hours. In the case of the fried meat and vegetables, it was […] cells/g of sample immediately after preparation, rising to 2×10^3 cells/g of sample after 5 hours and 2×10^8 cells/g of sample after 24 hours, at which point there was a slight smell of putrefaction, while after 48 hours putrefaction has progressed still further and the viable cell number had risen to 3×10^9 cells/g of sample.

[5] = tested on: putrefying bacteria in spinach with sesame dressing; experiment: as above; format: cell-based
Text: as §1, §2

[6] = tested on: putrefying bacteria in fried meat and vegetables; experiment: as above; format: cell-based
Text: as §1, §2

[7] = tested on: putrefying bacteria in tofu (soybean curd); experiment: as above; format: cell-based
Text: as §1, §2

[8] = tested on: putrefying bacteria in prepared food; experiment: Viable cell numbers in prepared food after spraying (Test Example 3), summary; format: cell-based
Text: With regards to the putrefaction process of prepared food, we investigated whether or not the present bactericidal disinfectant could stop the progress of putrefaction when sprayed of food, and the degree of that bactericidal effect. Normally disinfectants are not applied to prepared food, but very often scraps of food become lodged in a periodontal pocket, providing a nutritional source for bacteria, and since the present bactericidal disinfectant is composed of compounds which are recognized as food additives, it is important to assess these effects. Just-prepared cooked rice, tofu (soybean curd), spinach with sesame dressing, and fried meat and vegetables were each crushed, homogenized, and left at 28° C. for use as the samples. […] Water alone was sprayed as a control. […] Water alone was sprayed as a control. […] Consequently, although complete eradication was not achieved, it can be said that bactericide was largely achieved. That is, there is the ability to halt development of putrefying bacteria in food and a bactericidal effect.

[9] = tested on: spores of sporulating bacteria; format: cell-based
[10] = tested on: detached skin wounds of mice; experiment: Recovery from skin damage (Test Example 5); format: in vivo; details: applied to wound twice a day
[11] = tested on: Red worms
Description: Red worms with a mean length of 40 mm were prepared in groups of 10, the annuli of the red worms were severed with a cutter, and ordinary concentrations of the various bactericidal disinfectants contained in absorbent cotton were applied to the severed ends twice a day, morning and night. Application to the ends was continued even after the severed ends healed, and recovery and growth were observed. Water was applied as a control.

[12] = tested on: MRSA or E. coli O-157; format: cell-based; details: organic substance exceeding 50 ppm
[13] = tested on: thumbnails of volunteers; experiment: Elongation of thumbnails (Test Example 7); format: in vivo, human; details: Left (treated) thumbnail
Text: As a general rule the bacterial disinfectants were applied immediately after hand washing. Nail growth and shape are closely tied to individual physical condition, and are a benchmark of health.

[14] = sprayed after 5 hours, just after spraying
[15] = sprayed after 24 hours, 1 hr after spraying
[16] = sprayed after 24 hours, 2 hrs after spraying
[17] = sprayed after 24 hours, 24 hrs after spraying
[18] = sprayed after 24 hours, just after spraying
[19] = sprayed after 5 hours, 24 hrs after spraying

With `N=C(NCCCCCCNC(=N)NC(=N)Nc1ccc(Cl)cc1)NC(=N)Nc1ccc(Cl)cc1` [Hibitane] the “survival of bacteria living inside plaque” value [1] was “half survived”, the “survival of bacteria in plaque” value [2] was “continued to survive” and the “effect against acid-fast bacteria” value [3] was “ineffective”. For the same molecule, the viable cell number [4, 14] was 1 × 10^2 cells/g of sample, the viable cell number [4, 15] was 7 × 10^2 cells/g of sample and the viable cell number [4, 16] was 5 × 10^2 cells/g of sample. The viable cell number [4, 17] was 4 × 10^3 cells/g of sample, the viable cell number [4, 18] was 1 × 10^4 cells/g of sample and the viable cell number [5, 19] was 6 × 10^2 cells/g of sample. The viable cell number [5, 14] was 2 × 10^2 cells/g of sample, the viable cell number [5, 15] was 2 × 10^2 cells/g of sample and the viable cell number [5, 16] was 1 × 10^2 cells/g of sample. The viable cell number [5, 17] was 8 × 10^3 cells/g of sample, the viable cell number [5, 18] was 3 × 10^4 cells/g of sample and the viable cell number [6, 19] was 5 × 10^3 cells/g of sample. For the same molecule, the viable cell number [6, 14] was 2 × 10^2 cells/g of sample, the viable cell number [6, 15] was 5 × 10^2 cells/g of sample and the viable cell number [6, 16] was 2 × 10^2 cells/g of sample. For the same molecule, the viable cell number [6, 17] was 5 × 10^4 cells/g of sample, the viable cell number [6, 18] was 7 × 10^4 cells/g of sample and the viable cell number [7, 19] was 2 × 10^2 cells/g of sample. The viable cell number [7, 14] was 8 × 10^2 cells/g of sample, the viable cell number [7, 15] was 5 × 10^2 cells/g of sample and the viable cell number [7, 16] was 2 × 10^2 cells/g of sample. For the same molecule, the viable cell number [7, 17] was 3 × 10^3 cells/g of sample, the viable cell number [7, 18] was 5 × 10^4 cells/g of sample and the “bactericidal effect on putrefying bacteria in food” value [8] was “no bactericidal effect in the real sense”. The effect against spores [9] was “ineffective”, the “Recovery: Thin skin overall” value [10] was 5 days and the “Recovery: Complete recovery (coat grown back)” value ([10]; listed as Hibitane gel) was 40 days and 38 days. The “Recovery: Skin with roughly original thickness” value ([10]; listed as Hibitane gel) was 12 days, the “length of severed red worms” value ([11]; 5 days after severing, 20 mm when severed) was 21 mm and the “length of severed red worms” value ([11]; 10 days after severing) was 22 mm. For the same molecule, the “length of severed red worms” value ([11]; 15 days after severing) was 23 mm, the Deaths ([11]; in vivo) was 10 and the “bactericidal effect in presence of organic substance” value [12] was “the bacteria did not die after 1 minute of contact”. It also gave an Elongation of nails ([13]; 10 days) of 0.8 mm, an Elongation of nails ([13]; 20 days) of 1.7 mm and an Elongation of nails ([13]; 30 days) of 2.5 mm. It also gave an Elongation of nails ([13]; 40 days) of 3.3 mm, an Elongation of nails ([13]; 50 days) of 4.2 mm and an Elongation of nails ([13]; 60 days) of 5.0 mm.

Source: patent US7465576B2, “Method for treating periodontal disease with a bacteriocidal disinfectant” (priority 2004, dated 2008)
